Measurements as given in paper PMC12069692, “Pharmacological inhibition of PLK1/PRC1 triggers mitotic catastrophe and sensitizes lung cancers to chemotherapy” (Cell Death & Disease, 2025).

Target: T1, PLK1 (Homo sapiens, UniProt P53350)
T1 construct: Recombinant PLK1 protein (Active Motif 81429) in SPR; Flag-PBD in Co-IP-MS
Assay: SPR (Biacore T200, immobilized PLK1); supported by T1rho NMR, CETSA, Co-IP-MS, in vitro kinase assay (IC50 […])
Assay type: binding

T1 sequence (P53350 2-603): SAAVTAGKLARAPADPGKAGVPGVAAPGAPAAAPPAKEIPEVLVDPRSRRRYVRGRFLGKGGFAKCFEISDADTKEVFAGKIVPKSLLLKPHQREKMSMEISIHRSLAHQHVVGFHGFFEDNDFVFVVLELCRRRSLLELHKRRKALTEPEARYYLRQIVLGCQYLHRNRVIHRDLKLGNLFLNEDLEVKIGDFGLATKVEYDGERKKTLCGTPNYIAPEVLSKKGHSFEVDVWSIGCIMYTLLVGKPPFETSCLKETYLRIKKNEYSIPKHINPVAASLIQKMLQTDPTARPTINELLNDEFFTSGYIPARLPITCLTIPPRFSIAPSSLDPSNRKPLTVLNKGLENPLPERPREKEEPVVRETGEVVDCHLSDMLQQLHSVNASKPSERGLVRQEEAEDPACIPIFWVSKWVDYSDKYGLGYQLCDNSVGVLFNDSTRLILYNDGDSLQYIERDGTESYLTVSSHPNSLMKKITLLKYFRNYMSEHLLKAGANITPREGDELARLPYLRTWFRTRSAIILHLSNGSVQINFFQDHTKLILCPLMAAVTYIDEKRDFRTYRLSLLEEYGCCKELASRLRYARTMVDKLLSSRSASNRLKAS

With `CN(C)CCN1C(=O)c2cccc3c(S(=O)(=O)NCc4ccc(C(F)(F)F)cc4)ccc(c23)C1=O` [B4] the Kd was ~5.6 µM.
